# Assay results: patent publication US20160031868A1, “BENZIMIDAZOLONE DERIVATIVES AS BROMODOMAIN INHIBITORS” (GILEAD SCIENCES, INC., priority 2013, published 2016)
# Where two headings read alike, the source gives them in different places.
# Legend:
# [1] = tested on: c-Myc produced in MM1S cells; assay: c-Myc down regulation assay (MSD ELISA) in MM1S cells; assay type: cell-based; settings: Homo sapiens, MM1.S, 24 hrs incubation, geometric mean, read-out: cMYC EC50
# Method: An enzyme linked immunosorbent assay using the Meso Scale Diagnostic (MSD) technology was used to detect levels of c-Myc produced in MM1S cells (ATCC). MM1S cells were cultured in RPMI-1640 media (Corning), supplemented with 10% FBS (Hyclone), 1% penicillin-streptomycin (Cellgro), 2-mercaptoethanol (Gibco) and seeded onto 384-tissue culture treated filter binding plates (Millipore) at a density of 40K cells/well containing titrations of small molecule inhibitors or DMSO (0.4%) in a volume of 100 μl of media. After an incubation time of 24 hrs, cells were lysed (1× lysis buffer (Thermo) supplemented with protease and phosphatase inhibitor cocktail (Thermo)) and the plates centrifuged (1000 rpm, 1 min) to capture c-Myc on MSD plates coated with a monoclonal c-Myc antibody (Origene). Assay wells were washed (3× Invitrogen wash buffer) and probed with a polyclonal c-Myc antibody (Abcam) and MSD detection antibody solution in order to detect levels of c-Myc on the MSD platform. c-Myc capture was reported in pg/ml based on a standard curve using recombinant c-Myc protein (Prosci). EC50 values were calculated from the fit of the dose-response curves to a four-parameter equation. All EC50 values represent geometric mean values of a minimum of four determinations. These assays generally produced results within 3-fold of the reported mean.
# BRD4-1 = target: T1, BRD4-1 (Homo sapiens, UniProt O60885); assay: BRD4-1 Ligand KI assay (TR-FRET displacement of Cy5 labeled probe); assay type: binding
# T1 construct: made in house; host or cells: Escherichia coli
# Method: Binding of the two tandem bromodomains, BRD4-I and BRD4-2, to a Cy5 labeled probe/ligand (Compound 201-A) were measured using a homogeneous time resolved fluorescence resonance energy transfer (TR-FRET) assay.
# (§1) The labeled ligand specifically binds BRD4-1 and BRD4-2 and can be displaced by a small molecule inhibitor that shares a similar or overlapping binding site. BRD4-I and BRD4-2 were expressed and purified from Escherichia coli as N-terminal His6-tagged proteins. A Eu-cryptate labeled anti-His antibody (Perkin Elmer) was used to specifically bind BRD4. […] Assays were performed in 50 mM Hepes (pH 7.5), 150 mM NaCl, 0.1 mg/ml BSA, 0.01% (v/v) Brij, 0.5% (v/v) DMSO and 10 nM labeled ligand at the following concentrations for each BRD4 isoform: 2 nM BRD4-1 and 0.5 nM BRD4-2. After an assay reaction time of 60 minutes at 25° C., binding was measured with 2 nM Eu-cryptate labeled anti-His antibody. TR-FRET signal was detected on an Envision plate reader (Ex: 320 nm; Em: 615/665 nm; 100 μs delay and 200 μs read window). Data were normalized based on a positive (2 μM I-BET) and negative (DMSO) controls and IC50 values were calculated from the fit of the dose-response curves to a four-parameter equation. All IC50 values represent geometric mean values of a minimum of four determinations. The IC50 values were converted to Ki values (dissociation constant for BRD4-inhibitor complex) using the Cheng and Prusoff equation for a competitive inhibitor mode of action. These assays generally produced results within 3-fold of the reported mean.
# BRD4-2 = target: T2, BRD4-2 (Homo sapiens, UniProt O60885); assay: BRD4-2 Ligand KI assay (TR-FRET displacement of Cy5 labeled probe); assay type: binding
# T2 construct: made in house; host or cells: Escherichia coli
# Method: as §1, with “BRD4-I” for “The labeled ligand specifically binds BRD4-1 and BRD4-2 and can be displaced by a small molecule inhibitor that shares a similar or overlapping binding site. BRD4-I”, “action.” for “action. These assays generally produced results within 3-fold of the reported mean.”
# [2] = MT-4 proliferation assay in 384-well format (Cell Titer Glo); assay type: cell-based, human; settings: human, MT-4 cells, Table 2, 50% decrease in luminescence signal, read-out: CC50 MT4 384
# Method: Compounds were tested in a standardized high-throughput 384-well assay format. Each compound was serially diluted 3-fold in 100% DMSO in polypropylene 384-well plates using a Biomek FX Workstation, and 0.4 μL compound added to an assay plate containing 40 μL RPMI media. Compounds were arranged in a horizontal pattern, with 10 concentrations per compound, and 8 compounds added per plate. Due to low DMSO tolerability, the final DMSO concentration never exceeded 0.5% (v/v). Each assay plate contained 10 μM Puromycin and 0.5% DMSO in RPMI-1640 as positive and negative controls respectively. MT-4 cells (HTLV-1 transformed, human T lymphoblastoid cells, NIH Aids Reagent program) were added in volumes of 35 μL per well and 2,000 cells per well using a Biotek uFlow Workstation (Biotek, Winooski, Vt.), and the plates subsequently incubated for 5 days at 37° C. in an incubator set at 5% CO2 and 90% humidity.
# After 5 days, 22 μL Cell Titer Glo (Promega) was added to the assay plates with a Biotek uFlow Workstation. Plates were subsequently placed on a Perkin Elmer Envision Plate Reader for 5 minutes before the luminescence signal was read. CC50 values were calculated from the compound concentration that caused a 50% decrease in luminescence signal, a measure of toxicity, and calculated by non-linear regression using Pipeline Pilot software (Accelrys, San Diego, Calif.).
# [3] = 10 nM labeled ligand, 2 nM BRD4-1, Ki from IC50 by Cheng and Prusoff, read-out: BRD4-1 Ligand K1
# [4] = 10 nM labeled ligand, 0.5 nM BRD4-2, Ki from IC50 by Cheng and Prusoff, read-out: BRD4-2 Ligand K2
Compound,EC50 [1] [nM],Ki (BRD4-1; [3]) [nM],Ki (BRD4-2; [4]) [nM],CC50 at 5 days [2] [nM],Ki (BRD4-1) [nM],Ki (BRD4-2) [nM]
"Cc1noc(C)c1-c1cc(-c2c(C3CC3)n[nH]c2C2CC2)c2[nH]c(=O)[nH]c2c1 [Example 23, 4-(3,5-dicyclopropyl-1H-pyrazol-4-yl)-6-(3,5-dimethylisoxazol-4-yl)-1H-benzo[d]imidazol-2(3H)-one]",13.2,12.9,3,9.1,,
"Cc1noc(C)c1-c1cc(C(O)(c2ccccc2)c2ccc3ccc(F)cc3n2)c2[nH]c(=O)[nH]c2c1 (centres unmarked) [Example 33, 6-(3,5-dimethylisoxazol-4-yl)-4-((7-fluoroquinolin-2-yl)(hydroxy)(phenyl)methyl)-1H-benzo[d]imidazol-2(3H)-one]",176,14.1,5.3,29.1,,
"Cc1noc(C)c1-c1cc(C(O)(c2ccccn2)c2ccc3ccc(F)cc3n2)c2[nH]c(=O)[nH]c2c1 (centres unmarked) [Example 36, 6-(3,5-dimethylisoxazol-4-yl)-4-((7-fluoroquinolin-2-yl)(hydroxy)(pyridin-2-yl)methyl)-1H-benzo[d]imidazol-2(3H)-one]",176,14.1,5.3,29.1,,
"Cc1noc(C)c1-c1cc(C(O)(c2ccc(F)cn2)c2c(F)cccc2F)c2[nH]c(=O)[nH]c2c1 (centres unmarked) [Example 38, 4-((2,6-difluorophenyl)(5-fluoropyridin-2-yl)(hydroxy)methyl)-6-(3,5-dimethylisoxazol-4-yl)-1H-benzo[d]imidazol-2(3H)-one]",84.7,7.8,4.4,29.7,,
"Cc1noc(C)c1-c1cc(C(O)(c2ccc(F)cn2)c2ccc(F)cc2F)c2[nH]c(=O)[nH]c2c1 (centres unmarked) [Example 39, 4-((2,4-difluorophenyl)(5-fluoropyridin-2-yl)(hydroxy)methyl)-6-(3,5-dimethylisoxazol-4-yl)-1H-benzo[d]imidazol-2(3H)-one]",128,11.8,5.9,42.1,,
"Cc1noc(C)c1-c1cc(C(O)(c2ccc(F)cn2)c2cc(F)ccc2F)c2[nH]c(=O)[nH]c2c1 (centres unmarked) [Example 41, 4-((2,5-difluorophenyl)(5-fluoropyridin-2-yl)(hydroxy)methyl)-6-(3,5-dimethylisoxazol-4-yl)-1H-benzo[d]imidazol-2(3H)-one]",104,12.8,5,47.3,,
"Cc1noc(C)c1-c1cc(C(O)(c2cnccn2)c2c(F)cccc2F)c2[nH]c(=O)[nH]c2c1 (centres unmarked) [Example 49, 4-((2,6-difluorophenyl)(hydroxy)(pyrazin-2-yl)methyl)-6-(3,5-dimethylisoxazol-4-yl)-1H-benzo[d]imidazol-2(3H)-one]",,8.1,,9.7,,
"Cc1noc(C)c1-c1cc(C(O)(c2cccnn2)c2c(F)cccc2F)c2[nH]c(=O)[nH]c2c1 (centres unmarked) [Example 50, 4-((2,6-difluorophenyl)(hydroxy)(pyridazin-3-yl)methyl)-6-(3,5-dimethylisoxazol-4-yl)-1H-benzo[d]imidazol-2(3H)-one]",,8.7,5.9,16,,
"Cc1noc(C)c1-c1cc(C(O)(c2ccc(F)cn2)c2c(F)cc(F)cc2F)c2[nH]c(=O)[nH]c2c1 (centres unmarked) [Example 52, 6-(3,5-dimethylisoxazol-4-yl)-4-((5-fluoropyridin-2-yl)(hydroxy)(2,4,6-trifluorophenyl)methyl)-1H-benzo[d]imidazol-2(3H)-one]",135,8.9,6.4,36.1,,
"Cc1noc(C)c1-c1cc(C(O)(c2ccccn2)c2ccc(Cl)cn2)c2[nH]c(=O)[nH]c2c1 (centres unmarked) [Example 54, 4-((5-chloropyridin-2-yl)(hydroxy)(pyridin-2-yl)methyl)-6-(3,5-dimethylisoxazol-4-yl)-1H-benzo[d]imidazol-2(3H)-one]",111,,,27.1,22.7,14.1
"Cc1noc(C)c1-c1cc(C(O)(c2ccc(Cl)cn2)c2ccc(Cl)cn2)c2[nH]c(=O)[nH]c2c1 [Example 55, 4-(bis(5-chloropyridin-2-yl)(hydroxy)methyl)-6-(3,5-dimethylisoxazol-4-yl)-1H-benzo[d]imidazol-2(3H)-one]",141,14.5,18.2,41,,
"Cc1noc(C)c1-c1cc(C(O)(c2cnccn2)c2c(F)cc(F)cc2F)c2[nH]c(=O)[nH]c2c1 (centres unmarked) [Example 56, 6-(3,5-dimethylisoxazol-4-yl)-4-(hydroxy(pyrazin-2-yl)(2,4,6-trifluorophenyl)methyl)-1H-benzo[d]imidazol-2(3H)-one]",40.9,6,3.6,24.8,,
"Cc1noc(C)c1-c1cc(-c2cccnc2C2CC2)c2[nH]c(=O)[nH]c2c1 [Example 73, 4-(2-cyclopropylpyridin-3-yl)-6-(3,5-dimethylisoxazol-4-yl)-1H-benzo[d]imidazol-2(3H)-one]",154,34.2,24,61,,
"Cc1noc(C)c1-c1cc(C(O)(c2ccccn2)c2ccccn2)c2[nH]c(=O)[nH]c2c1 [Example 133, 6-(3,5-dimethylisoxazol-4-yl)-4-(hydroxydi(pyridin-2-yl)methyl)-1H-benzo[d]imidazol-2(3H)-one]",44.3,,,25.5,40.3,15.8
Cc1cccc(C(O)(c2cccc(C)n2)c2cc(-c3c(C)noc3C)cc3[nH]c(=O)[nH]c23)n1 [Example 134],74.4,69.9,5.3,19.1,,
"Cc1noc(C)c1-c1cc(C(O)(c2ccccn2)C2CCCCC2)c2[nH]c(=O)[nH]c2c1 (centres unmarked) [Example 144, 4-(cyclohexyl(hydroxy)(pyridin-2-yl)methyl)-6-(3,5-dimethylisoxazol-4-yl)-1H-benzo[d]imidazol-2(3H)-one]",,7.7,2.7,,,
